This is an account of results in patent US7119207B2, “Benzoamide piperidine containing compounds and related compounds” (Pfizer INC, priority 2000, dated 2006).

What is called melting point is the temperature of the solid-liquid transition.

Structures can show the parent of a compound that is named as a salt.

`COc1cc2c(cc1CNC1CCCNC1c1ccccc1)NC(=O)CC2` (stereo not drawn) (as salt: HCl) [Example 1, 6-Methoxy-7-[(2-phenyl-piperidin-3-ylamino)-methyl]-3,4-dihydro-1H-quinolin-2-one] returned a melting point of 233 to 235 °C. `CCN1C(=O)CCc2cc(OC)c(CNC3CCCNC3c3ccccc3)cc21` (stereo not drawn) (as salt: hydrochloride) [Example 2, 1-Ethyl-6-methoxy-7-[(2-phenyl-piperidin-3-ylamino)-methyl]-3,4-dihydro-1H-quinolin-2-one] displayed a melting point of 253 to 255 °C. Take `COc1cc2c(cc1CNC1CCCNC1c1ccccc1)N(S(C)(=O)=O)C(=O)CC2` (stereo not drawn) (as salt: hydrochloride) [Example 3, 1-Methanesulfonyl-6-methoxy-7-[(2-phenyl-piperidin-3-ylamino)-methyl]-3,4-dihydro-1H-quinolin-2-one]: the melting point fell in the range of 237 to 241 °C. Consider `COc1cc2c(cc1CNC1CCCNC1c1ccccc1)N(C)C(=O)CC2(C)C` (stereo not drawn) (as salt: hydrochloride) [Example 4, 6-Methoxy-1,4,4-trimethyl-7-[(2-phenyl-piperidin-3-ylamino)-methyl]-3,4-dihydro-1H-quinolin-2-one], for which the melting point was more than 280 °C.

`COc1cc2c(c(F)c1CNC1CCCNC1c1ccccc1)N(C)C(=O)CC2(C)C` (stereo not drawn) (as salt: hydrochloride) [Example 5, 8-Fluoro-6-methoxy-1,4,4-trimethyl-7-[(2-phenyl-piperidin-3-ylamino)-methyl]-3,4-dihydro-1H-quinolin-2-one] gave a melting point of more than 270 °C. For the molecule `COc1cc2c(cc1CN[C@H]1CCCN(C(=O)C(F)(F)F)[C@H]1c1ccccc1)N(C)C(=O)CC2` (as salt: hydrochloride) [Example 10, 6-Methoxy-1-methyl-7-[(2S,3S)-(2-phenyl-1-trifluoroacetyl-piperidin-3-ylamino)-methyl]-3,4-dihydro-1H-quinolin-2-one], the melting point was 222 to 224 °C (dec.). As for `COc1cc2c(cc1CN[C@H]1CCCN(C)[C@H]1c1ccccc1)C(C)(C)C(=O)N2C` (as salt: hydrochloride) [Example 14, 5-[{(2S,3S)-1-Methyl-2-phenyl-piperidin-3-ylamino}-methyl]-6-methoxy-1,3,3-trimethyl-1,3-dihydro-indol-2-one], the melting point is > 250 °C (dec.). In the case of `COc1cc2c(cc1CN[C@H]1CCCN(Cc3n[nH]c(=O)[nH]3)[C@H]1c1ccccc1)C(C)(C)C(=O)N2C` [Example 18, 6-Methoxy-1,3,3-trimethyl-5-{[(2S,3S)-1-(5-oxo-4,5-dihydro-1H-[1,2,4]triazol-3-ylmethyl)-2-phenyl-piperidin-3-ylamino]-methyl}-1,3-dihydro-indol-2-one], the melting point is > 250 °C (dec.). The result for `CCC1CCC(NCc2cc3c(cc2OC)C2CC2C(=O)N3C)C(c2ccccc2)N1` (stereo not drawn) [Example 85, 5-[(6-Ethyl-2-phenyl-piperidin-3-ylamino)-methyl]-6-methoxy-3-methyl-1,1a,3,7b-tetrahydro-3-aza-cyclopropa[a]naphthalen-2-one] reads 231 to 234 °C (dec.).
